Results taken from patent US20250144067A1, “PERSONALIZED STARVATION THERAPY FOR CANCER” (Faeth Therapeutics, Inc., priority 2021, published 2025).
Where a name gives a salt, the structure may show the parent alone. Read-outs that look alike come from different tables or passages of the source. Peptide text beside a SMILES is read from it.

Assays:
[1] = test system: NCI-H292 lung cancer cells; assay: FDA drug screening, complete media vs cholesterol-free media without statin (TABLE 1); type: cell-based, human
[2] = test system: NCI-H292 lung cancer cells; assay: FDA drug screening, complete media vs cholesterol-free media with simvastatin (TABLE 2); type: cell-based, human
[3] = NCI-H292 cells, cholesterol-free media without statin
[4] = complete vs cholesterol-free media, greater than 0 enhanced anti-cancer activity, about 0 neutral, below 0 antagonists
[5] = NCI-H292 cells, drug in cholesterol-free media with simvastatin 0.04 μM
[6] = NCI-H292 cells, drug in complete media
[7] = complete media vs cholesterol-free media + simvastatin (0.04 μM), >0 enhanced anti-cancer activity, about 0 neutral, <0 antagonist
[8] = Complete minus Cholesterol-free, >0 enhanced anti-cancer activity, about 0 neutral, <0 antagonist
[9] = complete media minus cholesterol-free media + simvastatin, >0 enhanced anti-cancer activity, about 0 neutral, <0 antagonist
[10] = Complete minus Cholesterol-free, greater than 0 enhanced anti-cancer activity, about 0 neutral, below 0 antagonists
[11] = NCI-H292 cells in cholesterol-free media without statin
[12] = NCI-H292 cells in complete media
[13] = NCI-H292 cells, FDA drug library screen, cholesterol-free media with simvastatin 0.04 μM
[14] = complete media minus cholesterol-free media + simvastatin (0.04 μM), >0 enhanced anti-cancer activity, about 0 neutral, <0 antagonist
[15] = NCI-H292 cells, FDA drug library screen, complete media
[16] = NCI-H292 cells, cholesterol-free media with simvastatin 0.04 μM, FDA drug library screen (TABLE 2)
[17] = NCI-H292 cells, complete media, FDA drug library screen (TABLE 2)
[18] = NCI-H292 cells, cholesterol-free media without statin, FDA drug library screen
[19] = NCI-H292 cells, complete media, FDA drug library screen
[20] = complete vs cholesterol-free media, >0 enhanced anti-cancer activity, about 0 neutral, <0 antagonist
[21] = NCI-H292 cells, FDA library drug in cholesterol-free media with simvastatin 0.04 μM
[22] = NCI-H292 cells, FDA library drug in complete media
[23] = Complete minus Cholesterol-free, greater than 0 enhanced anti-cancer activity, about 0 neutral, below 0 antagonist
[24] = NCI-H292 cells, FDA drug library screen, cholesterol-free media without statin

CCC(c1ccccc1)c1c(O)c2ccccc2oc1=O (centres unmarked) [Phenprocoumon]
Cholesterol-free [1, 3]: 1.312
Complete ([1]; NCI-H292 cells, complete media): 0.8729
Difference [1, 4]: −0.44
Cholesterol-free media + simvastatin (0.04 μM) [2, 5]: 1.071
Complete Media [2, 6]: 0.9061
Difference [2, 7]: −0.16

CN1C(=O)CC(c2ccccc2)C1=O (centres unmarked) [Phensuximide]
Difference [1, 8]: −0.30
Cholesterol-free [1, 3]: 1.128
Complete ([1]; NCI-H292 cells, complete media): 0.8334
Cholesterol-free media + simvastatin (0.04 μM) [2, 5]: 1.556
Complete Media [2, 6]: 1.333
Difference [2, 7]: −0.22

CCCCC1C(=O)N(c2ccccc2)N(c2ccccc2)C1=O [Phenylbutazone]
Difference [1, 8]: −0.26
Cholesterol-free [1, 3]: 1.376
Complete ([1]; NCI-H292 cells, complete media): 1.114
Cholesterol-free media + simvastatin (0.04 μM) ([2]; NCI-H292 cells, cholesterol-free media with simvastatin 0.04 μM, cell growth value in FDA drug screen): 1.076
Difference [2, 9]: 0.07

CNC[C@H](O)c1cccc(O)c1 [Phenylephrine (hydrochloride)]
Difference [1, 10]: −0.61
Cholesterol-free [1, 11]: 1.371
Complete [1, 12]: 0.7558
Cholesterol-free media + simvastatin (0.04 μM) [2, 13]: 2.302
Difference [2, 14]: −1.21

CNC[C@H](O)c1cccc(O)c1 [Phenylephrine]
Cholesterol-free [1, 3]: 1.197
Complete ([1]; NCI-H292 cells, complete media): 0.817
Difference [1, 4]: −0.38
Cholesterol-free media + simvastatin (0.04 μM) [2, 13]: 1.256
Complete Media [2, 15]: 1.518
Difference [2, 9]: 0.26

O=C1NC(=O)C(c2ccccc2)(c2ccccc2)N1 [Phenytoin (sodium)]
Difference [1, 8]: −0.27
Cholesterol-free [1, 3]: 1.197
Complete ([1]; NCI-H292 cells, complete media): 0.9283
Cholesterol-free media + simvastatin (0.04 μM) [2, 16]: 0.8893
Complete Media [2, 17]: 0.8884
Difference [2, 14]: 0.00

O=C1NC(=O)C(c2ccccc2)(c2ccccc2)N1 [Phenytoin]
Cholesterol-free [1, 18]: 0.8044
Complete [1, 19]: 0.8965
Difference [1, 20]: 0.09
Cholesterol-free media + simvastatin (0.04 μM) [2, 13]: 1.316
Complete Media [2, 15]: 1.23
Difference [2, 7]: −0.09

CC(=O)NS(=O)(=O)c1ccc(NC(=O)c2ccccc2C(=O)O)cc1 [Phthalylsulfacetamide]
Difference [1, 8]: −0.29
Cholesterol-free [1, 3]: 1.274
Complete ([1]; NCI-H292 cells, complete media): 0.9792
Cholesterol-free media + simvastatin (0.04 μM) [2, 21]: 1.031
Complete Media [2, 22]: 0.7098
Difference [2, 7]: −0.32

O=C1CC[C@@H](C(=O)N2CSC[C@H]2C(=O)O)N1 [Pidotimod] (HELM PEPTIDE1{[Glp].[O=C(O)[C@@H]1CSCN1[*:1]]}$$$$V2.0)
Cholesterol-free [1, 3]: 1.383
Complete ([1]; NCI-H292 cells, complete media): 0.9708
Difference [1, 4]: −0.41
Cholesterol-free media + simvastatin (0.04 μM) [2, 16]: 1.016
Complete Media [2, 17]: 1.03
Difference [2, 14]: 0.01

CC(C)COc1ccc(CNC(=O)N(Cc2ccc(F)cc2)C2CCN(C)CC2)cc1 [Pimavanserin]
Cholesterol-free [1, 18]: 0.9868
Complete [1, 19]: 1.126
Difference [1, 20]: 0.14
Cholesterol-free media + simvastatin (0.04 μM) [2, 13]: 0.8784
Complete Media [2, 15]: 1.133
Difference [2, 9]: 0.25

CC[C@@H]1/C=C(\C)C[C@H](C)C[C@H](OC)[C@H]2O[C@@](O)(C(=O)C(=O)N3CCCC[C@H]3C(=O)O[C@H](/C(C)=C/[C@@H]3CC[C@H](Cl)[C@H](OC)C3)[C@H](C)[C@@H](O)CC1=O)[C@H](C)C[C@@H]2OC [Pimecrolimus]
Difference [1, 8]: −0.26
Cholesterol-free [1, 3]: 1.022
Complete ([1]; NCI-H292 cells, complete media): 0.7576
Cholesterol-free media + simvastatin (0.04 μM) [2, 5]: 1.1
Complete Media [2, 6]: 0.8909
Difference [2, 7]: −0.21

CN1CCC(=C2c3ccccc3Sc3ccccc32)CC1 [Pimethixene maleate]
Cholesterol-free [1, 3]: 1.492
Complete ([1]; NCI-H292 cells, complete media): 1.142
Difference [1, 4]: −0.35
Cholesterol-free media + simvastatin (0.04 μM) [2, 5]: 1.097
Complete Media [2, 6]: 0.9153
Difference [2, 7]: −0.18

COc1ccc(-c2nc3ccc(C4=NNC(=O)CC4C)cc3[nH]2)cc1 (centres unmarked) [Pimobendan]
Difference [1, 23]: −0.11
Cholesterol-free [1, 24]: 1.104
Complete [1, 15]: 0.9932
Cholesterol-free media + simvastatin (0.04 μM) [2, 16]: 1.535
Complete Media [2, 17]: 1.535
Difference [2, 14]: 0.00

O=c1[nH]c2ccccc2n1C1CCN(CCCC(c2ccc(F)cc2)c2ccc(F)cc2)CC1 [Pimozide]
Cholesterol-free [1, 3]: 1.1
Complete ([1]; NCI-H292 cells, complete media): 0.6361
Difference [1, 4]: −0.46
Cholesterol-free media + simvastatin (0.04 μM) [2, 13]: 0.8031
Complete Media [2, 15]: 0.9681
Difference [2, 9]: 0.16

CC(N/C(=N\C#N)Nc1ccncc1)C(C)(C)C (centres unmarked) [Pinacidil monohydrate]
Difference [1, 8]: −0.26
Cholesterol-free [1, 3]: 1.093
Complete ([1]; NCI-H292 cells, complete media): 0.8337
Cholesterol-free media + simvastatin (0.04 μM) [2, 21]: 1.085
Complete Media [2, 22]: 0.8064
Difference [2, 7]: −0.28

CC(C)NCC(O)COc1cccc2[nH]ccc12 (centres unmarked) [Pindolol]
Cholesterol-free [1, 18]: 0.8852
Complete [1, 19]: 0.973
Difference [1, 20]: 0.09
Cholesterol-free media + simvastatin (0.04 μM) [2, 5]: 1.032
Complete Media [2, 6]: 0.7777
Difference [2, 7]: −0.25

CCc1ccc(CCOc2ccc(CC3SC(=O)NC3=O)cc2)nc1 (centres unmarked) [Pioglitazone (hydrochloride)]
Difference [1, 8]: −0.30
Cholesterol-free [1, 3]: 1.265
Complete ([1]; NCI-H292 cells, complete media): 0.9669
Cholesterol-free media + simvastatin (0.04 μM) [2, 5]: 1.247
Complete Media [2, 6]: 1.002
Difference [2, 7]: −0.25

CCc1ccc(CCOc2ccc(CC3SC(=O)NC3=O)cc2)nc1 (centres unmarked) [Pioglitazone]
Cholesterol-free [1, 18]: 0.8939
Difference [1, 20]: 0.27
Cholesterol-free media + simvastatin (0.04 μM) [2, 21]: 2.095
Complete Media [2, 22]: 1.521
Difference [2, 7]: −0.57

CCn1cc(C(=O)O)c(=O)c2cnc(N3CCNCC3)nc21 [Pipemidic acid]
Cholesterol-free [1, 3]: 1.181
Complete ([1]; NCI-H292 cells, complete media): 0.8267
Difference [1, 4]: −0.35
Cholesterol-free media + simvastatin (0.04 μM) [2, 16]: 1.008
Complete Media [2, 17]: 0.9896
Difference [2, 14]: −0.02

CC(=O)c1ccc2c(c1)N(CCCN1CCC(CCO)CC1)c1ccccc1S2 [Piperacetazine]
Difference [1, 10]: −0.82
Cholesterol-free [1, 11]: 1.769
Complete [1, 12]: 0.9455
Cholesterol-free media + simvastatin (0.04 μM) [2, 13]: 1.088
Complete Media [2, 15]: 0.9352
Difference [2, 7]: −0.15

CCN1CCN(C(=O)N[C@@H](C(=O)N[C@@H]2C(=O)N3[C@@H]2SC(C)(C)[C@@H]3C(=O)[O-])c2ccccc2)C(=O)C1=O.[Na+] [Piperacillin (sodium)]
Difference [1, 23]: −0.14
Cholesterol-free [1, 24]: 1.282
Complete [1, 15]: 1.138
Cholesterol-free media + simvastatin (0.04 μM) [2, 13]: 2.325
Difference [2, 14]: −1.15

CCN1CCCC(OC(=O)C(c2ccccc2)c2ccccc2)C1 (centres unmarked) [Piperidolate (hydrochloride)]
Cholesterol-free ([1]; (hydrochloride)): 0.554
Complete ([1]; (hydrochloride)): 1.098
Difference ([1]; (hydrochloride)): 0.54
Cholesterol-free media + simvastatin (0.04 μM) ([2]; (hydrochloride)): 0.5751
Complete Media ([2]; (hydrochloride)): 0.901
Difference ([2]; (hydrochloride)): 0.33

CCN1CCCC(OC(=O)C(c2ccccc2)c2ccccc2)C1 (centres unmarked) [Piperidolate]
Cholesterol-free [1]: 1.19
Complete [1]: 0.6819
Difference [1]: −0.51
Cholesterol-free media + simvastatin (0.04 μM) [2]: 0.8957
Complete Media [2]: 1.487
Difference [2]: 0.59

CCCCOCCOCCOCc1cc2c(cc1CCC)OCO2 [Piperonyl butoxide]
Difference [1, 8]: −0.29
Cholesterol-free [1, 3]: 1.491
Complete ([1]; NCI-H292 cells, complete media): 1.202
Cholesterol-free media + simvastatin (0.04 μM) [2, 16]: 1.206
Complete Media [2, 17]: 1.18
Difference [2, 14]: −0.03

O=C(CCBr)N1CCN(C(=O)CCBr)CC1 [Pipobroman]
Difference [1, 8]: −0.30
Cholesterol-free [1, 3]: 1.38
Complete ([1]; NCI-H292 cells, complete media): 1.078
Cholesterol-free media + simvastatin (0.04 μM) [2, 21]: 1.384
Complete Media [2, 22]: 1.051
Difference [2, 7]: −0.33

NC(=O)CN1CCCC1=O [Piracetam]
Difference [1, 10]: −0.50
Cholesterol-free [1, 11]: 1.403
Complete [1, 12]: 0.9062
Cholesterol-free media + simvastatin (0.04 μM) [2, 13]: 1.178
Complete Media [2, 15]: 1.066
Difference [2, 7]: −0.11

COc1cccc2c1C(=O)c1c(O)c3c(c(O)c1C2=O)C[C@@](O)(C(=O)CO)C[C@@H]3O[C@H]1C[C@H](N)[C@H](O[C@@H]2CCCCO2)[C@H](C)O1 [Pirarubicin (Hydrochloride)]
Difference ([1]; Complete minus Cholesterol-free, […]): −0.09
Cholesterol-free [1, 24]: 0.6484
Complete [1, 15]: 0.5605
Cholesterol-free media + simvastatin (0.04 μM) [2, 16]: 0.5554
Complete Media [2, 17]: 0.5244
Difference ([2]; complete media minus cholesterol-free media + simvastatin (0.04 μM), […]): −0.03

CN1CCN(CC(=O)N2c3ccccc3C(=O)Nc3cccnc32)CC1 [Pirenzepine (dihydrochloride)]
Cholesterol-free [1, 18]: 1.465
Complete [1, 19]: 1.606
Difference [1, 20]: 0.14
Cholesterol-free media + simvastatin (0.04 μM) [2, 16]: 1.293
Complete Media [2, 17]: 1.265
Difference [2, 14]: −0.03

Cc1ccc(=O)n(-c2ccccc2)c1 [Pirfenidone]
Cholesterol-free [1, 3]: 1.328
Complete ([1]; NCI-H292 cells, complete media): 0.9771
Difference [1, 4]: −0.35
Cholesterol-free media + simvastatin (0.04 μM) [2, 21]: 1.397
Complete Media [2, 22]: 1.068
Difference [2, 7]: −0.33
